Reference: US20260232767A1, “INTERLEUKIN-23 RECEPTOR ANTAGONIST PEPTIDES FOR USE IN THE TREATMENT OF PSORIASIS” (Janssen Pharmaceutica NV, priority 2023, published 2026)

Tested on: subjects with moderate-to-severe plaque psoriasis
Assay: Safety, adverse events, Example 2 through Week 56
Type: in vivo, human
Conditions: Placebo → 100 mg QD
Excerpt: The LTE safety analysis was based on randomized participants in Example who entered the present long-term extension study and received at least one dose of study intervention (including a partial dose) during the study period.

CC(=O)NCCCC[C@@H]1NC(=O)[C@H](Cc2c[nH]c3c(C)cccc23)NC(=O)[C@H]([C@@H](C)O)NC(=O)[C@H](CC(N)=O)NC(=O)[C@@H](NC(C)=O)C(C)(C)SSC(C)(C)[C@@H](C(=O)N[C@@H](Cc2ccc(OCCN)cc2)C(=O)N[C@@H](Cc2ccc3ccccc3c2)C(=O)NC2(C(=O)N[C@@H](CCC(=O)O)C(=O)N[C@@H](CC(N)=O)C(=O)N[C@@H](Cc3cccnc3)C(=O)N(C)CC(N)=O)CCOCC2)NC1=O [IL-23 receptor antagonist peptide, Ac-[Pen]*-N-T-[W(7-Me)]-[Lys(Ac)]-[Pen]*-Phe[4-(2-aminoethoxy)]-[2-Nal]-[THP]-E-N-[3-Pal]-Sarc-NH2 (*[Pen]-[Pen]* formdisulfidebond)]
Subjects with serious adverse event: Ventricular dysfunction (LTE Safety analysis set): 0
Subjects with 1 or more treatment-emergent adverse events leading to discontinuation of study agent (Week 16-56): 0
Subjects with AE leading to discontinuation: Alanine aminotransferase increased (Week 16-56): 0
Subjects with AE leading to discontinuation: Aspartate aminotransferase increased (Week 16-56): 0
Subjects with AE leading to discontinuation: Asthenia (Week 16-56): 0
Subjects with AE leading to discontinuation: Chills (Week 16-56): 0
Subjects with AE leading to discontinuation: Ear and labyrinth disorders (Week 16-56): 0
Subjects with AE leading to discontinuation: Gamma-glutamyltransferase increased (Week 16-56): 0
Subjects with AE leading to discontinuation: Gastrointestinal disorders (Week 16-56): 0
Subjects with AE leading to discontinuation: General disorders and administration site conditions (Week 16-56): 0
Subjects with AE leading to discontinuation: Headache (Week 16-56): 0
Subjects with AE leading to discontinuation: Insomnia (Week 16-56): 0
Subjects with AE leading to discontinuation: Investigations (Week 16-56): 0
Subjects with AE leading to discontinuation: Nervous system disorders (Week 16-56): 0
Subjects with AE leading to discontinuation: Proctalgia (Week 16-56): 0
Subjects with AE leading to discontinuation: Psoriasis (Week 16-56): 0
Subjects with AE leading to discontinuation: Psychiatric disorders (Week 16-56): 0
Subjects with AE leading to discontinuation: Skin and subcutaneous tissue disorders (Week 16-56): 0
Subjects with AE leading to discontinuation: Vertigo (Week 16-56): 0
Subjects with AE leading to discontinuation: Vomiting (Week 16-56): 0
Subjects with treatment-emergent AE: Headache (Week 16-56): 0
Subjects with treatment-emergent AE: Meniscus injury (Week 16-56): 0
Subjects with treatment-emergent AE: Nasopharyngitis (Week 16-56): 9
Subjects with treatment-emergent AE: Sinusitis (Week 16-56): 0
Subjects with treatment-emergent AE: Vomiting (Week 16-56): 0
Subjects with treatment-emergent serious AE: Cardiac disorders (Week 16-56): 0
Subjects with treatment-emergent serious AE: Coronary artery disease (Week 16-56): 0
Subjects with treatment-emergent serious AE: Diverticulitis (Week 16-56): 0
Subjects with treatment-emergent serious AE: Foot deformity (Week 16-56): 0
Subjects with treatment-emergent serious AE: General disorders and administration site conditions (Week 16-56): 0
Subjects with treatment-emergent serious AE: Infections and infestations (Week 16-56): 0
Subjects with treatment-emergent serious AE: Injury, poisoning and procedural complications (Week 16-56): 0
Subjects with treatment-emergent serious AE: Intervertebral disc protrusion (Week 16-56): 0
Subjects with treatment-emergent serious AE: Ligament injury (Week 16-56): 0
Subjects with treatment-emergent serious AE: Musculoskeletal and connective tissue disorders (Week 16-56): 0
Subjects with treatment-emergent serious AE: Neoplasms benign, malignant and unspecified (incl cysts and polyps) (Week 16-56): 0
Subjects with treatment-emergent serious AE: Non-cardiac chest pain (Week 16-56): 0
Subjects with treatment-emergent serious AE: Respiratory, thoracic and mediastinal disorders (Week 16-56): 0
Subjects with treatment-emergent serious AE: Tonsillar hypertrophy (Week 16-56): 0
Subjects with treatment-emergent serious AE: Uterine leiomyoma (Week 16-56): 0
Subjects with treatment-emergent serious AE: Ventricular dysfunction (Week 16-56): 0
Acrochordon: number of subjects (through Week 56): 0
Actinic keratosis: number of subjects (through Week 56): 0
Alopecia: number of subjects (through Week 56): 0
Asthenia: number of subjects (through Week 56): 0
Asthma: number of subjects (through Week 56): 0
Atrioventricular block first degree: number of subjects (through Week 56): 0
Basal cell carcinoma: number of subjects (through Week 56): 0
Blood and lymphatic system disorders: number of subjects (through Week 56): 0
Bronchitis chronic: number of subjects (through Week 56): 0
Bundle branch block right: number of subjects (through Week 56): 0
Cardiac disorders: number of subjects (through Week 56): 0
Chills: number of subjects (through Week 56): 0
Cholelithiasis: number of subjects (through Week 56): 0
Chronic obstructive pulmonary disease: number of subjects (through Week 56): 0
Coronary artery disease: number of subjects (through Week 56): 0
Cough: number of subjects (through Week 56): 0
Decreased appetite: number of subjects (through Week 56): 0
Depression: number of subjects (through Week 56): 0
Dermal cyst: number of subjects (through Week 56): 0
Dermatitis acneiform: % of subjects (through Week 56): (2.9%)
Dermatitis acneiform: number of subjects (through Week 56): 1
Dermatitis contact: number of subjects (through Week 56): 0
Diabetes mellitus: number of subjects (through Week 56): 0
Diffuse alopecia: number of subjects (through Week 56): 0
Dysuria: % of subjects (through Week 56): (2.9%)
Dysuria: number of subjects (through Week 56): 1
Ear and labyrinth disorders: number of subjects (through Week 56): 0
Endocrine disorders: number of subjects (through Week 56): 0
Eye disorders: % of subjects (through Week 56): (5.7%)
Eye disorders: number of subjects (through Week 56): 2
Eyelid skin dryness: number of subjects (through Week 56): 0
Fatigue: number of subjects (through Week 56): 0
General disorders and administration site conditions: number of subjects (through Week 56): 0
Goiter: number of subjects (through Week 56): 0
Haemochromatosis: % of subjects (through Week 56): (2.9%)
Haemochromatosis: number of subjects (through Week 56): 1
Hand dermatitis: % of subjects (through Week 56): (2.9%)
Hand dermatitis: number of subjects (through Week 56): 1
Hematuria: % of subjects (through Week 56): (2.9%)
Hematuria: number of subjects (through Week 56): 1
Hepatobiliary disorders: % of subjects (through Week 56): (2.9%)
Hepatobiliary disorders: number of subjects (through Week 56): 1
Hypercholesterolemia: number of subjects (through Week 56): 0
Hyperglycemia: number of subjects (through Week 56): 0
Hyperlipidemia: number of subjects (through Week 56): 0
Hypertension: % of subjects (through Week 56): (2.9%)
Hypertension: number of subjects (through Week 56): 1
Hypertransaminasemia: % of subjects (through Week 56): (2.9%)
Hypertransaminasemia: number of subjects (through Week 56): 1
Hypertriglyceridemia: number of subjects (through Week 56): 0
Hypoacusis: number of subjects (through Week 56): 0
Immune system disorders: number of subjects (through Week 56): 0
Influenza like illness: number of subjects (through Week 56): 0
Insomnia: number of subjects (through Week 56): 0
Intertrigo: number of subjects (through Week 56): 0
Ketonuria: number of subjects (through Week 56): 0
Leukocyturia: number of subjects (through Week 56): 0
Leukopenia: number of subjects (through Week 56): 0
Libido decreased: number of subjects (through Week 56): 0
Liver disorder: number of subjects (through Week 56): 0
Lymphopenia: number of subjects (through Week 56): 0
Menopause: number of subjects (through Week 56): 0
Metabolism and nutrition disorders: % of subjects (through Week 56): (2.9%)
Metabolism and nutrition disorders: number of subjects (through Week 56): 1
Neoplasms benign, malignant and unspecified (incl cysts and polyps): number of subjects (through Week 56): 0
Nephrolithiasis: number of subjects (through Week 56): 0
Neutropenia: number of subjects (through Week 56): 0
Night sweats: number of subjects (through Week 56): 0
Non-cardiac chest pain: number of subjects (through Week 56): 0
Ocular cyst: % of subjects (through Week 56): (2.9%)
Ocular cyst: number of subjects (through Week 56): 1
Oedema peripheral: number of subjects (through Week 56): 0
Oropharyngeal pain: % of subjects (through Week 56): (2.9%)
Oropharyngeal pain: number of subjects (through Week 56): 1
Procedural pain: number of subjects (through Week 56): 0
Productive cough: number of subjects (through Week 56): 0
Proteinuria: number of subjects (through Week 56): 0
Pruritus: number of subjects (through Week 56): 0
Psoriasis: number of subjects (through Week 56): 0
Psychiatric disorders: number of subjects (through Week 56): 0
